# “And” between values parts separate entries of the source, which are not always exact repeats. Equal entries are not always repeated. Toxic doses and inconclusive results are not listed.
# Tested on: L1210 leukemia ip in BDF1 mice, survival T/C
# Test: NCI In Vivo Anticancer Drug Screen. Data for tumor model L1210 Leukemia (intraperitoneal) in B6D2F1 (BDF1) mice
# Conditions: endpoint: mean survival time, higher = longer survival
# Outline: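 Antitumor effect is assessed in tumor-bearing animals. Survival in the compound arm is compared with a vehicle-dosed control arm and expressed as their quotient.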
# [1] = dose: 100.0 mg/kg/injection, schedule: Q01DX009 (ip), vehicle: saline
# [2] = dose: 200.0 mg/kg/injection, schedule: Q01DX009 (ip), vehicle: saline
# [3] = dose: 400.0 mg/kg/injection, schedule: Q01DX009 (ip), vehicle: saline
# [4] = dose: 100.0 mg/kg/injection, schedule: Q01DX001 (ip), vehicle: saline with Tween-80
# [5] = dose: 200.0 mg/kg/injection, schedule: Q01DX001 (ip), vehicle: saline with Tween-80
# [6] = dose: 400.0 mg/kg/injection, schedule: Q01DX001 (ip), vehicle: saline with Tween-80
# [7] = dose: 50.0 mg/kg/injection, schedule: Q01DX001 (ip), vehicle: carboxymethylcellulose (CMC)
# [8] = dose: 100.0 mg/kg/injection, schedule: Q01DX001 (ip), vehicle: carboxymethylcellulose (CMC)
# [9] = dose: 200.0 mg/kg/injection, schedule: Q01DX001 (ip), vehicle: carboxymethylcellulose (CMC)
# [10] = dose: 400.0 mg/kg/injection, schedule: Q01DX001 (ip), vehicle: carboxymethylcellulose (CMC)
# [11] = dose: 100.0 mg/kg/injection, schedule: Q01DX009 (ip), vehicle: Klucel (hydroxypropylcellulose) (HPC)
# [12] = dose: 100.0 mg/kg/injection, schedule: Q04DX003 (ip), vehicle: Klucel (hydroxypropylcellulose) (HPC)
# [13] = dose: 200.0 mg/kg/injection, schedule: Q04DX003 (ip), vehicle: Klucel (hydroxypropylcellulose) (HPC)
# [14] = dose: 400.0 mg/kg/injection, schedule: Q01DX009 (ip), vehicle: Klucel (hydroxypropylcellulose) (HPC)
# [15] = dose: 400.0 mg/kg/injection, schedule: Q04DX003 (ip), vehicle: Klucel (hydroxypropylcellulose) (HPC)
# [16] = dose: 100.0 mg/kg/injection, schedule: Q01DX009 (ip), vehicle: saline with Tween-80
# [17] = dose: 100.0 mg/kg/injection, schedule: Q04DX002 (ip), vehicle: saline with Tween-80
# [18] = dose: 25.0 mg/kg/injection, schedule: Q04DX003 (ip), vehicle: Klucel (hydroxypropylcellulose) (HPC)
# [19] = dose: 50.0 mg/kg/injection, schedule: Q04DX003 (ip), vehicle: Klucel (hydroxypropylcellulose) (HPC)
# [20] = dose: 100.0 mg/kg/injection, schedule: Q04DX003 (ip), vehicle: saline
# [21] = dose: 200.0 mg/kg/injection, schedule: Q04DX003 (ip), vehicle: saline
# [22] = dose: 400.0 mg/kg/injection, schedule: Q04DX003 (ip), vehicle: saline
# [23] = dose: 400.0 mg/kg/injection, schedule: Q01DX001 (ip), vehicle: saline
smiles,measurement,setting,value
OC1C2CC3C(C2)C13 (centres undefined),T/C,[1],102 % of control
same,T/C,[2],96 % of control
same,T/C,[3],98 % of control
O=C1CCC23/C=C/C(=O)NCCCCNCCCNC(=O)/C=C/c4ccc(c2c4)OC3C1 (centres undefined),T/C,[4],101 % of control
same,T/C,[5],95 % of control
same,T/C,[6],91 % of control
Cc1c2ccc3ccccc3c2cc2cccc(Cl)c12,T/C,"dose: 100.0 mg/kg/injection, schedule: Q01DX001 (ip), vehicle: Klucel (hydroxypropylcellulose) (HPC)",97 % of control
same,T/C,"dose: 200.0 mg/kg/injection, schedule: Q01DX001 (ip), vehicle: Klucel (hydroxypropylcellulose) (HPC)",98 % of control
same,T/C,"dose: 400.0 mg/kg/injection, schedule: Q01DX001 (ip), vehicle: Klucel (hydroxypropylcellulose) (HPC)",101 % of control
O=C(Nc1cccc(Cl)c1)Nc1ccc(Br)c(C(F)(F)F)c1,T/C,[7],100 % of control
same,T/C,[8],94 % of control
same,T/C,[9],96 % of control
same,T/C,[10],94 % of control
CCC(C)C(C=NCC(CCN(C)C)(c1ccc2ccccc2c1)C(C)CC)(CCN(C)C)c1ccc2ccccc2c1 (centres undefined),T/C,"dose: 12.5 mg/kg/injection, schedule: Q04DX002 (ip), vehicle: saline + alcohol",92 % of control
same,T/C,"dose: 12.5 mg/kg/injection, schedule: Q04DX002 (ip), vehicle: saline with Tween-80",92 % of control
same,T/C,"dose: 25.0 mg/kg/injection, schedule: Q04DX002 (ip), vehicle: saline + alcohol",92 % of control
CCCCCCCC(=O)CC(C)C,T/C,[11],109 % of control
same,T/C,[12],93 % of control
same,T/C,"dose: 200.0 mg/kg/injection, schedule: Q01DX009 (ip), vehicle: Klucel (hydroxypropylcellulose) (HPC)",98 % of control
same,T/C,[13],96 % of control
same,T/C,[14],107 % of control
same,T/C,[15],96 % of control
O=C1C(=O)c2c3ccccc3cc3cccc1c23,T/C,"dose: 50.0 mg/kg/injection, schedule: Q01DX009 (ip), vehicle: saline with Tween-80",88 % of control
same,T/C,[16],91 % of control
CC(=O)OCCCC/C(=C/c1cc2ccccc2c2ccccc12)[N+](=O)[O-],T/C,"dose: 100.0 mg/kg/injection, schedule: Q01DX009 (ip), vehicle: carboxymethylcellulose (CMC)",100 % of control
same,T/C,"dose: 266.0 mg/kg/injection, schedule: Q01DX009 (ip), vehicle: carboxymethylcellulose (CMC)",104 % of control
same,T/C,"dose: 400.0 mg/kg/injection, schedule: Q01DX009 (ip), vehicle: carboxymethylcellulose (CMC)",104 % of control
same,T/C,"dose: 600.0 mg/kg/injection, schedule: Q01DX009 (ip), vehicle: carboxymethylcellulose (CMC)",100 % of control
Cc1c(NC(=O)Nc2cccc(Cl)c2)nc(Br)c2ccccc12,T/C,[17],101 % of control
same,T/C,"dose: 200.0 mg/kg/injection, schedule: Q04DX002 (ip), vehicle: saline with Tween-80",96 % of control
Cc1ccccc1N=C(N)N=C(N)N,T/C,"dose: 25.0 mg/kg/injection, schedule: Q01DX009 (ip), vehicle: Klucel (hydroxypropylcellulose) (HPC)",93 % of control
same,T/C,[18],95 % of control
same,T/C,"dose: 50.0 mg/kg/injection, schedule: Q01DX009 (ip), vehicle: Klucel (hydroxypropylcellulose) (HPC)",90 % of control
same,T/C,[19],103 % of control
same,T/C,[11],98 % of control and 92 % of control
same,T/C,[12],100 % of control and 90 % of control
CC1C2C=CC1C(c1c3ccc(=O)c(O)c-3oc3c(O)c(O)ccc13)C2C(=O)O (centres undefined),T/C,[20],105 % of control
same,T/C,[21],103 % of control
same,T/C,[22],100 % of control
O=C(/C=C(/C(=O)c1ccccc1)N1CC1)c1ccccc1,T/C,[7],113 % of control
same,T/C,[8],105 % of control
same,T/C,[9],97 % of control
same,T/C,[10],103 % of control
O=[N+]([O-])/C=C/c1cccc([N+](=O)[O-])c1,T/C,[18],103 % of control
same,T/C,[19],103 % of control
CC(/C=C/c1ccccc1)=C1/SC(=S)NC1=O,T/C,"dose: 100.0 mg/kg/injection, schedule: Q01DX001 (ip), vehicle: saline",93 % of control
same,T/C,"dose: 200.0 mg/kg/injection, schedule: Q01DX001 (ip), vehicle: saline",96 % of control
same,T/C,[23],94 % of control
CC(C)=C(c1ccc(Br)cc1)c1ccc(Br)cc1,T/C,"dose: 100.0 mg/kg/injection, schedule: Q01DX009 (ip), vehicle: acetone",93 % of control
same,T/C,"dose: 100.0 mg/kg/injection, schedule: Q04DX003 (ip), vehicle: saline with Tween-80",105 % of control
same,T/C,"dose: 200.0 mg/kg/injection, schedule: Q04DX003 (ip), vehicle: saline with Tween-80",97 % of control
same,T/C,"dose: 400.0 mg/kg/injection, schedule: Q04DX003 (ip), vehicle: saline with Tween-80",94 % of control
CCN(C)CCN(C)CC,T/C,[1],102 % of control
same,T/C,[20],97 % of control
same,T/C,[2],104 % of control
same,T/C,[21],99 % of control
same,T/C,[3],106 % of control
same,T/C,[22],99 % of control
COC(=O)C(CCSC)NC(=O)c1ccccc1 (centres undefined),T/C,[16],93 % of control
same,T/C,"dose: 200.0 mg/kg/injection, schedule: Q01DX009 (ip), vehicle: saline with Tween-80",96 % of control
O/N=C(\c1ccccc1)C1C(/C(=N/O)c2ccccc2)C1c1ccccc1 (centres undefined),T/C,[17],88 % of control
same,T/C,"dose: 400.0 mg/kg/injection, schedule: Q04DX002 (ip), vehicle: saline with Tween-80",88 % of control
O=C(O)CCC(=O)Nc1cc(C(F)(F)F)ccc1Cl,T/C,"dose: 100.0 mg/kg/injection, schedule: Q04DX002 (ip), vehicle: saline",102 % of control
same,T/C,"dose: 200.0 mg/kg/injection, schedule: Q04DX002 (ip), vehicle: saline",97 % of control
same,T/C,"dose: 400.0 mg/kg/injection, schedule: Q04DX002 (ip), vehicle: saline",108 % of control
Cn1nc(N)c2cc(C(N)=O)c(N)nc21,T/C,[11],88 % of control
same,T/C,[12],96 % of control
same,T/C,[13],100 % of control
same,T/C,[14],90 % of control
same,T/C,[15],97 % of control
[N-]=[N+]=Nc1ccc2c(=O)c3ccccc3[nH]c2c1,T/C,"dose: 100.0 mg/kg/injection, schedule: Q04DX003 (ip), vehicle: acetone",89 % of control
same,T/C,"dose: 200.0 mg/kg/injection, schedule: Q04DX003 (ip), vehicle: acetone",98 % of control
same,T/C,"dose: 400.0 mg/kg/injection, schedule: Q04DX003 (ip), vehicle: acetone",96 % of control
COc1ccc2c(c1)c1c(C)c3cnccc3c(C)c1n2C,T/C,"dose: 25.0 mg/kg/injection, schedule: Q01DX001 (ip), vehicle: saline",100 % of control
same,T/C,"dose: 50.0 mg/kg/injection, schedule: Q01DX001 (ip), vehicle: saline",102 % of control
same,T/C,"dose: 89.0 mg/kg/injection, schedule: Q01DX001 (ip), vehicle: carboxymethylcellulose (CMC)",102 % of control
same,T/C,"dose: 265.0 mg/kg/injection, schedule: Q01DX001 (ip), vehicle: saline",152 % of control
same,T/C,"dose: 267.0 mg/kg/injection, schedule: Q01DX001 (ip), vehicle: carboxymethylcellulose (CMC)",107 % of control
same,T/C,[10],117 % of control
same,T/C,[23],124 % of control
C[S+](C)c1ccccc1NCc1ccccc1O,T/C,[4],92 % of control
same,T/C,[5],93 % of control
same,T/C,[6],90 % of control
O=C1c2cc(F)ccc2-c2cc(Br)c([N+](=O)[O-])cc21,T/C,[8],97 % of control
same,T/C,[9],103 % of control
same,T/C,[10],95 % of control
C#CCNc1ncnc2c1ncn2C1OC(CO)C(O)C1O (centres undefined),T/C,"dose: 50.0 mg/kg/injection, schedule: Q01DX005 (ip), vehicle: saline",105 % of control
same,T/C,"dose: 100.0 mg/kg/injection, schedule: Q01DX005 (ip), vehicle: saline",101 % of control
same,T/C,"dose: 200.0 mg/kg/injection, schedule: Q01DX005 (ip), vehicle: saline",94 % of control
